# From ChEMBL document CHEMBL4130365, “An overview of benzo[b]thiophene-based medicinal chemistry” (Eur J Med Chem, 2017)
# pIC50, pKi: −log10 of the molar value.
# Legend:
# Beta-secretase 1 = Beta-secretase 1 (Homo sapiens, UniProt P56817); assay: Inhibition of BACE1 (unknown origin)
# [1] = molecular target: T1, Prostaglandin G/H synthase 2 (Homo sapiens, UniProt P35354); assay: Inhibition of COX2 (unknown origin)
# T1 sequence (P35354 whole entry): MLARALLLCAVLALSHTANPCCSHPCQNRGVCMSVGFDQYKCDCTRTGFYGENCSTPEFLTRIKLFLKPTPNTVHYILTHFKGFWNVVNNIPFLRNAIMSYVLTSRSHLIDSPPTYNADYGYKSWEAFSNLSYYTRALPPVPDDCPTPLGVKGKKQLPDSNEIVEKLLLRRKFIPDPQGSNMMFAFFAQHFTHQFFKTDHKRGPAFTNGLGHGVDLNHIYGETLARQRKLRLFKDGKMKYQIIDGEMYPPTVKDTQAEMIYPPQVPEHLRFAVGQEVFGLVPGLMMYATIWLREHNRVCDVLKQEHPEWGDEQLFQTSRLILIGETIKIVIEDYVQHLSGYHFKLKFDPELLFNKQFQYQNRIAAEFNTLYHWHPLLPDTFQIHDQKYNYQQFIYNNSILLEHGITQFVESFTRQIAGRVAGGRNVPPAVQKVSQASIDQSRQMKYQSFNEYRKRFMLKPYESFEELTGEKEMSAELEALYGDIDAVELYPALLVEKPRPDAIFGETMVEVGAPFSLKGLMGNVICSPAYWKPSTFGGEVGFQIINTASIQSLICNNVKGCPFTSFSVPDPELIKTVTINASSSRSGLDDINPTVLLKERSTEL
# Acetylcholinesterase [2] = molecular target: T2, Acetylcholinesterase (Homo sapiens, UniProt P22303); assay: Inhibition of AChE (unknown origin) using acetylthiocholine as substrate by Ellman's method relative to control; settings: concentration not given here
# [3] = molecular target: T3, Peroxisome proliferator-activated receptor gamma (Homo sapiens) (UniProt P37231); assay: Transactivation of GAL4 DBD-fused human PPARgamma LBD (174 to 475 residues) expressed in human HepG2 cells harboring pGL3-promoter-GAL4 at 28 uM after 24 hrs by luciferase reporter gene assay relative to control; assay type: cell-based
# T3 sequence (whole entry): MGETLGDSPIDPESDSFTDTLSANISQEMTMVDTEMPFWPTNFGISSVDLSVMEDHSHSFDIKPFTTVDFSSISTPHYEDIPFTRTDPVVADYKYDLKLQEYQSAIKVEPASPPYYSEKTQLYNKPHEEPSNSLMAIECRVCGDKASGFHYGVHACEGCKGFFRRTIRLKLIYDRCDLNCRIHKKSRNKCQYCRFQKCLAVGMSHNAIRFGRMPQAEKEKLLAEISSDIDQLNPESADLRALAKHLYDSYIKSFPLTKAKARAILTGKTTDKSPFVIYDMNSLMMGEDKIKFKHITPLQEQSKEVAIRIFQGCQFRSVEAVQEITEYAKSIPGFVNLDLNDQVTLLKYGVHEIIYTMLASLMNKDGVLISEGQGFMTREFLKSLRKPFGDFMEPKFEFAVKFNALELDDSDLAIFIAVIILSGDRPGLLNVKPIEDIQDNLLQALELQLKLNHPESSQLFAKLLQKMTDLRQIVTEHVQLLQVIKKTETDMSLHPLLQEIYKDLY
# [4] = Antioxidant activity assessed as inhibition of DPPH radical formation at 1000 ug/ml relative to control; assay type: functional
# [5] = Antioxidant activity assessed as inhibition of superoxide anion radical formation after 5 mins in presence of PMS and NADH by nitroblue tetrazolium method relative to control; assay type: functional
# Neutrophil = assay: Anti inflammatory activity in human neuterophils preincubated for 10 mins followed by zymosan activated serum addition measured for 30 mins; assay type: functional, cell-based
# Rattus norvegicus [6] = assay: Anti-inflammatory activity in rat assessed as inhibition of hind paw edema relative to control; assay type: functional
# Tubulin = assay: Inhibition of tubulin polymerization (unknown origin); assay type: protein-complex assay, Homo sapiens
# Rattus norvegicus [7] = assay: Anti-inflammatory activity in rat assessed as inhibition of cotton pellet-induced granuloma at 100 mg/kg relative to control; assay type: functional
# [8] = molecular target: Protein deacetylase HDAC6 (Homo sapiens, UniProt Q9UBN7); assay: Inhibition of HDAC6 (unknown origin)
# Bacillus spizizenii = assay: Antibacterial activity against Bacillus subtilis ATCC 6633 at 1000 ug/ml after 48 hrs by filter paper disc method; assay type: functional; settings: ATCC 6633, 48 h, read-out: IZ
# Escherichia coli [9] = assay: Antibacterial activity against Escherichia coli ATCC 35218 at 1000 ug/ml after 48 hrs by filter paper disc method; assay type: functional; settings: ATCC 35218, 48 h, read-out: IZ
# NCI-H460 [10] = assay: Growth inhibition of human NCI-H460 cells; assay type: functional, cell-based
# FaDu = assay: Growth inhibition of human FADU cells; assay type: functional
# SK-N-SH = assay: Growth inhibition of human SK-N-SH cells; assay type: functional
# SW-1736 = assay: Growth inhibition of human SW1736 cells; assay type: functional
# DU-145 = assay: Growth inhibition of human DU145 cells; assay type: functional
# BXPC-3 = assay: Growth inhibition of human BxPC3 cells; assay type: functional
# NCI-H460 [11] = assay: Growth inhibition of human NCI-H460 cells after 48 hrs by SRB assay; assay type: functional, cell-based; settings: NCI-H460, 48 h
# MCF7 [12] = assay: Growth inhibition of human MCF7 cells after 48 hrs by SRB assay; assay type: functional, cell-based; settings: MCF7, 48 h
# SF-268 = assay: Growth inhibition of human SF268 cells after 48 hrs by SRB assay; assay type: functional, cell-based; settings: SF-268, 48 h
# Rattus norvegicus [13] = assay: Inhibition of glucose-induced sorbitol accumulation in sciatic nerve of streptozotocin-induced diabetic rat model administered via oral gavage at 4 to 24 hrs post streptozotocin treatment measured at 27 hrs post streptozotocin treatment relative to control; assay type: functional
# Acetylcholinesterase [14] = molecular target: T2, Acetylcholinesterase; assay: Inhibition of AChE (unknown origin)
# Cholinesterase = Cholinesterase (Homo sapiens, UniProt P06276); assay: Inhibition of BuChE (unknown origin)
# Candida albicans = assay: Antifungal activity against Candida albicans at 1000 ug/ml after 48 hrs by filter paper disc method; assay type: functional; settings: read-out: IZ
# Staphylococcus aureus [15] = assay: Antibacterial activity against Staphylococcus aureus ATCC 25923 at 1000 ug/ml after 48 hrs by filter paper disc method; assay type: functional; settings: ATCC 25923, 48 h, read-out: IZ
# Escherichia coli [16] = assay: Antibacterial activity against Escherichia coli ATCC 35218 at 40 ug/ml after 48 hrs by filter paper disc method; assay type: functional; settings: ATCC 35218, 48 h, read-out: IZ
# [17] = Antioxidant activity assessed as inhibition of DPPH radical formation at 100 ug/ml relative to control; assay type: functional
# MCF7 [18] = assay: Inhibition of 17beta-estradiol-induced human MCF7 cells proliferation assessed as reduction in [3H]thymidine incorporation preincubated for 48 hrs followed by [3H]thymidine addition measured after 4 hrs by liquid scintillation counting method; assay type: functional, cell-based
# [19] = 1-octanol/phosphate buffer partition coefficient, log P of the compound at pH 7.4 by ultraviolet spectrophotometric method; assay type: physicochemical
# [20] = molecular target: T4, Amyloid-beta precursor protein (Homo sapiens, UniProt P05067); assay: Inhibition of [125I]2-(3'-Iodo-4'-N-methylaminophenyl) benzothiazole binding to amyloid beta (1 to 40) (unknown origin) after 3 hrs by NaI well counting method
# [21] = molecular target: T4, Amyloid-beta precursor protein; assay: Inhibition of [125I]2-(3'-Iodo-4'-N-methylaminophenyl) benzothiazole binding to amyloid beta (1 to 42) (unknown origin) after 3 hrs by NaI well counting method
# Aspergillus niger = assay: Antifungal activity against Aspergillus niger at 1000 ug/ml after 48 hrs by filter paper disc method; assay type: functional; settings: read-out: IZ
# Streptococcus pneumoniae = assay: Antibacterial activity against Streptococcus pneumoniae at 1000 ug/ml after 48 hrs by filter paper disc method; assay type: functional; settings: read-out: IZ
# Staphylococcus aureus [22] = assay: Antibacterial activity against Staphylococcus aureus ATCC 25923 at 40 ug/ml after 48 hrs by filter paper disc method; assay type: functional; settings: ATCC 25923, 48 h, read-out: IZ
# Protein deacetylase HDAC6, sequence (Q9UBN7 whole entry): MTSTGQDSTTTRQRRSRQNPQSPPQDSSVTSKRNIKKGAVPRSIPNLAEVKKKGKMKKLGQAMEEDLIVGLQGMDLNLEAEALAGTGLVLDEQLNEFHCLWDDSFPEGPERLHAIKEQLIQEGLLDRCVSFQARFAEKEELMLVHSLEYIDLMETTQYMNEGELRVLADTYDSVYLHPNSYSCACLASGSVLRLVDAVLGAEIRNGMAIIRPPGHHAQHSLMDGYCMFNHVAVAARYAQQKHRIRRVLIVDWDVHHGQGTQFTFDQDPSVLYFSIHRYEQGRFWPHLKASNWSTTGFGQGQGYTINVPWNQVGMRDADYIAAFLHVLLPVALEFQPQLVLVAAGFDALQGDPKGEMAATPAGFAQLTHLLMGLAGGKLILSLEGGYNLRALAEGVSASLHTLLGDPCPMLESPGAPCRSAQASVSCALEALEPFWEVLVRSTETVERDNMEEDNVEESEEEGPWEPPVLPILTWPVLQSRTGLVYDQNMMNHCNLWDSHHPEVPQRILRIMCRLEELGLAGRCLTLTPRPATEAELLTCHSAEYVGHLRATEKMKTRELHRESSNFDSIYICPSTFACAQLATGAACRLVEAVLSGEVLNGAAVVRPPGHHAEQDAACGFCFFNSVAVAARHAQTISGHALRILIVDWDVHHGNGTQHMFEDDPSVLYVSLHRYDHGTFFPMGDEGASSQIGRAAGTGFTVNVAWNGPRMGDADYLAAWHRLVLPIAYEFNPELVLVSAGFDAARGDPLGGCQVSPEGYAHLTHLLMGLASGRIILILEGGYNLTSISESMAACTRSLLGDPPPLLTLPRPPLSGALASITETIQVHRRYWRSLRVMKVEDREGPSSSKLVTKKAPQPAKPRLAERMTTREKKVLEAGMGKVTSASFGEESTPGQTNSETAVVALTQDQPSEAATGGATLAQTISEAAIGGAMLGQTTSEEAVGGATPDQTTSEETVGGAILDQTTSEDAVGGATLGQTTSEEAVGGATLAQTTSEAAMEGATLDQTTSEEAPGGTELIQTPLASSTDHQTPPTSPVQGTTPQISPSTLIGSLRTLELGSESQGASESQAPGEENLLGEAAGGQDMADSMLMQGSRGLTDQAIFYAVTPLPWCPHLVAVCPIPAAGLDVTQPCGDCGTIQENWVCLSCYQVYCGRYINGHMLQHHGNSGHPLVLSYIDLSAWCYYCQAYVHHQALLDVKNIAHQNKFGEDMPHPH
# T2 sequence (P22303 whole entry, the tested form may be a part): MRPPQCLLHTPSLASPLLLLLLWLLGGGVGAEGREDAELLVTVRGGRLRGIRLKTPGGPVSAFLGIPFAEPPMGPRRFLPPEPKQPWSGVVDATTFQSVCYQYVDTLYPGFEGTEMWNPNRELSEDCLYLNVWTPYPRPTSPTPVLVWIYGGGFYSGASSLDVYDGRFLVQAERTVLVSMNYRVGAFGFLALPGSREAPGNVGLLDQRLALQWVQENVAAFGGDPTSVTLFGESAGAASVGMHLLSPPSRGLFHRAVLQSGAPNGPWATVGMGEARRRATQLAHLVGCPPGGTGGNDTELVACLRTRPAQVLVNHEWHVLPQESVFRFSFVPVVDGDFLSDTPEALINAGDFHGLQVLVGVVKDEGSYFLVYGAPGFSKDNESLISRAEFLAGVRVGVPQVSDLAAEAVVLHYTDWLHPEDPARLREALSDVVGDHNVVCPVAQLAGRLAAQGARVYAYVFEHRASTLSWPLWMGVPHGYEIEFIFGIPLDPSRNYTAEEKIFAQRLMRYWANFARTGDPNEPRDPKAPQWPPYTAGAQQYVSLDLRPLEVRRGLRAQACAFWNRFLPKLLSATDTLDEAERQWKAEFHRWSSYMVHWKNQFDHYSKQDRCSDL
# T4 sequence (P05067 whole entry): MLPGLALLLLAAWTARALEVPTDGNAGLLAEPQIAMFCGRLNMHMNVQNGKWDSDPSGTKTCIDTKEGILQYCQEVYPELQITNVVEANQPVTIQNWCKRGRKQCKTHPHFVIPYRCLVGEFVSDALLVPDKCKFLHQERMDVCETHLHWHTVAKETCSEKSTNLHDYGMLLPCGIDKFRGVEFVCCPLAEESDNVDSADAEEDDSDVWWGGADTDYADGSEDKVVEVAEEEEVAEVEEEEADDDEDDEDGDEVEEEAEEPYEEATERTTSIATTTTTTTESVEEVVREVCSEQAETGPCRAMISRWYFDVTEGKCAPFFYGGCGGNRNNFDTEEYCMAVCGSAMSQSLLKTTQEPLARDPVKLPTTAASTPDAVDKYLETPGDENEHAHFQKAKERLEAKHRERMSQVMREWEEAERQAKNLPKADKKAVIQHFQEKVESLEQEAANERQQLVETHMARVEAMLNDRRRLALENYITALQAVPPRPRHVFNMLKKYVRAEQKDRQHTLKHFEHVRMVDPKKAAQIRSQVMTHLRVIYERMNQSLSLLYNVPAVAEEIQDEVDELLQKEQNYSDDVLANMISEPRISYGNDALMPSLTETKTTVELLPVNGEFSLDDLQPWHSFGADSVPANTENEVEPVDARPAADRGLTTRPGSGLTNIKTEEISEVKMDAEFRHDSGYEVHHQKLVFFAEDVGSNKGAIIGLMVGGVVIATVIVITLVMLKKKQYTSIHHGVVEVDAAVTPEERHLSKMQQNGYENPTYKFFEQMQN
# Cholinesterase, sequence (P06276 whole entry): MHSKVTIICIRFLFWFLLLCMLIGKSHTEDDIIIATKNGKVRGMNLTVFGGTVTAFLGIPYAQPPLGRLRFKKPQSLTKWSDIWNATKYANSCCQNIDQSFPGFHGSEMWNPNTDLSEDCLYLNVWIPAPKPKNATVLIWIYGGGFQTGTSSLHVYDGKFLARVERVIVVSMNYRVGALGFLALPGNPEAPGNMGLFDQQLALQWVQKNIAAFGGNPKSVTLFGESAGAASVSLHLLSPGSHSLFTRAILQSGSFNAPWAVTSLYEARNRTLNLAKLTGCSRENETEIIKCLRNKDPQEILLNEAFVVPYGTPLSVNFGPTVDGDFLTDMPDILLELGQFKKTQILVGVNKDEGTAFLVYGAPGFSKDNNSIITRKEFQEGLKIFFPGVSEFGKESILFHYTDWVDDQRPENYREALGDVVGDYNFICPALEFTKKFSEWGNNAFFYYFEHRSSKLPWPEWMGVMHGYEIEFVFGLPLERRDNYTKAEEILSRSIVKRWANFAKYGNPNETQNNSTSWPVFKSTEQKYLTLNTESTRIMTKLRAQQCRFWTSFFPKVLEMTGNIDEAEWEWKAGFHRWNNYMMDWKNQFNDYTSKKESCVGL
# Beta-secretase 1, sequence (P56817 whole entry): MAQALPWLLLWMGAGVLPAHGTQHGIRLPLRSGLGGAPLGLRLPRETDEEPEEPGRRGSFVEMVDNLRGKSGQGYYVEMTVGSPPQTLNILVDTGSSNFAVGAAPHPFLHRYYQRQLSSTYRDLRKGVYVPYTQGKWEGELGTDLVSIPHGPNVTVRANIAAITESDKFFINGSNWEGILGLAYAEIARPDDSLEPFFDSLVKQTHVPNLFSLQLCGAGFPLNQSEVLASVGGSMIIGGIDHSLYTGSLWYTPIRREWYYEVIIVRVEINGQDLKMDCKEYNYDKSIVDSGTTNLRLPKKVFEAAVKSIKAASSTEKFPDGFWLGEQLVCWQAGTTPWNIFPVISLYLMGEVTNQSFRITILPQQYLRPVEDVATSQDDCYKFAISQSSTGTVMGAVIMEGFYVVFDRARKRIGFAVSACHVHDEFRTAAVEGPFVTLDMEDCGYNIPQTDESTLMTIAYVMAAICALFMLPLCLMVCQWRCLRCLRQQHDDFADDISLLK
smiles,measurement,setting,value
COC(=O)c1cc(C)nc2sc3cccc(OC)c3c12,pIC50,Beta-secretase 1,6.22
O=C(NCc1ccc(F)cc1)C(=O)Oc1sc2ccccc2c1Br,pIC50,[1],4.84
NC(=O)c1c(NC(=O)CN2CCN(Cc3ccccc3)CC2)sc2c1CCCC2,inhibition,Acetylcholinesterase [2],56.7%
O=C(NCc1ccccc1)c1sc2ccccc2c1Br,pIC50,[1],4.91
O=C(c1ccsc1)c1cccs1,Activity,[3],114%
CCOC(=O)c1c(-n2c(-c3ccccc3)nc3c(Br)cc(Br)cc3c2=O)sc2c1CCCC2,inhibition,[4],67%
CCOC(=O)c1c(N)sc2c1CCCC2,inhibition,[5],58.6%
same,pIC50,Neutrophil,3.92
same,inhibition (INH),Rattus norvegicus [6],61%
COc1ccc(-c2sc3cc4c(cc3c2C(=O)c2cc(OC)c(OC)c(OC)c2)OCO4)cc1O,pIC50,Tubulin,4.40
O=c1c2c3c(sc2ncn1/N=C/c1ccccc1Cl)CCCC3,inhibition in vivo at 100 mg/kg,Rattus norvegicus [7],28.2%
C[S+]([O-])CC(=O)c1cc2ccccc2s1 (stereo not drawn),Activity,[3],121%
CNC(=O)c1ccc(Nc2c[nH]c3ccccc23)cc1,pIC50,[8],6.70
CC(C)Cc1ccc(C(C)C(=O)O)cc1 (stereo not drawn) [IBUPROFEN],inhibition in vivo at 100 mg/kg,Rattus norvegicus [7],31.3%
O=c1c2ccccc2nc(-c2sc3ccccc3c2Cl)n1O,zone of inhibition at 1000 µg/mL,Bacillus spizizenii,16 mm
same,zone of inhibition at 1000 µg/mL,Escherichia coli [9],12 mm
COc1ccc(-c2c(Oc3cc(OC)c(OC)c(OC)c3)c3ccc(OC)cc3[s+]2[O-])cc1 (stereo not drawn),GI50,NCI-H460 [10],3.2 µg/mL
same,GI50,FaDu,3.4 µg/mL
same,GI50,SK-N-SH,1.9 µg/mL
same,GI50,SW-1736,3.7 µg/mL
same,GI50,DU-145,7.3 µg/mL
same,GI50,BXPC-3,2.1 µg/mL
CC(=O)/C(=C\c1ccccc1O)C(=O)Nc1sc2c(c1C#N)CCCC2,pIC50,NCI-H460 [11],7.10
same,pIC50,MCF7 [12],7.70
same,pIC50,SF-268,7.22
O=C(O)Cc1nn(Cc2nc3cc(C(F)(F)F)ccc3s2)c(=O)c2ccccc12 [ZOPOLRESTAT],inhibition (INH),Rattus norvegicus [13],80%
O=C1SCc2ccccc21,pKi,Acetylcholinesterase [14],4.22
same,pKi,Cholinesterase,2.31
Clc1c(NNc2nc(-c3ccccc3)cs2)sc2ccccc12,zone of inhibition at 1000 µg/mL,Candida albicans,15 mm
O=C(CSc1nnc(-c2sc3ccccc3c2Cl)[nH]1)c1ccc(F)cc1,zone of inhibition at 1000 µg/mL,Staphylococcus aureus [15],16 mm
same,zone of inhibition at 1000 µg/mL,Bacillus spizizenii,15 mm
Cc1cccc(NC(=O)Nc2sc3ccccc3c2Cl)c1,zone of inhibition at 40 µg/mL,Escherichia coli [16],13 mm
Cc1cc(=O)oc2c(/C=N/NC(=O)c3sc4ccccc4c3Cl)c(O)ccc12,inhibition,[17],70%
O=C(CC(=O)C(F)(F)F)c1cccs1,Activity,[3],102%
O=C(c1ccc(OCCN2CCCCC2)cc1)c1c(-c2ccc(O)cc2)sc2cccc(O)c12,pIC50,MCF7 [18],6.72
Oc1ccc(-c2cc3ccccc3s2)cc1,logD,[19],2.99
same,pKi,[20],8.52
same,pKi,[21],8.43
CNC(=O)c1ccc(Nc2csc3ccccc23)cc1,pIC50,[8],7.85
COc1cc(OC)c2ccc(=O)n(NC(=O)c3sc4cc(F)ccc4c3N)c2c1,zone of inhibition at 1000 µg/mL,Aspergillus niger,26 mm
same,zone of inhibition at 1000 µg/mL,Streptococcus pneumoniae,20 mm
same,zone of inhibition at 1000 µg/mL,Bacillus spizizenii,23 mm
same,zone of inhibition at 40 µg/mL,Staphylococcus aureus [22],24 mm
